Assay results: patent publication US11427605B2, “Crystalline forms of 5-chloro-N4-[-2-(dimethylphosphoryl) phenyl]-N2-{2-methoxy-4-[4-(4-methylpiperazin-1-yl) piperidin-1-yl] phenyl} pyrimidine-2,4-diamine” (ARIAD Pharmaceuticals, Inc., priority 2014, dated 2022)
Values after ≈ are worked out from the molar mass of the structure shown. Values joined by “and” are separate entries in the source; they are usually repeats but may differ in a detail not shown here. Equal entries are not always repeated.

Tests used:
Assay type in all cases: physicochemical
[1] = Slurry experiments at 20° C. and 40° C.; conditions: slurry 40° C., Chloroform; the solids dissolved after 14 days
Description: A total of 68 slurry experiments were performed with brigatinib both at room temperature (20° C.) and 40° C., using 34 solvents. In all cases, a solvent volume of 250 μL was used. The slurries were stirred for two weeks. At the end of the slurry time, the vials were centrifuged and solids and mother liquids separated. The solids were analyzed wet and dry by XRPD and digital imaging. The measuring plates were then stored at ambient conditions for 3-4 weeks and another XRPD was obtained of the solid, any form change is shown by an arrow.

[2] = Crash crystallization with anti-solvent addition
Description: In the crash-crystallization experiments, 34 different crystallization conditions were applied, using 6 different solvents and 24 different anti-solvents (see Table 17). The anti-solvent addition experiments were performed forward. For each solvent, a stock solution was prepared, the concentration of brigatinib in each case being that attained at saturation at ambient temperature after equilibration for 24 hours before filtering.
For each experiment, the anti-solvent was added to each solvent vial, with a solvent to anti-solvent ratio of 1:0.25. In the cases where no precipitation occurred, this ratio was increased to 1:1, and if again no precipitation occurred the ratio was increased to 1:4, with a waiting time of 60 minutes between the additions (up to the third addition) and 35 minutes between the third addition and fourth addition. When no crystallization occurred or not enough solids precipitated for separation, samples were kept at 5° C. for 17 hours. The precipitated solids were separated from the liquids by centrifugation and decantation. When decantation could not be applied, the liquid was carefully removed using Pasteur's pipettes. The solids were dried at 200 mbar for 17 hours and analyzed by XRPD and digital imaging. In the cases where no precipitation occurred, the solvents were evaporated at 200 mbar for 17 hours prior to lowering the vacuum to 5 mbar. All obtained solids were analyzed by XRPD and digital imaging. The measuring plates containing the final solid were stored at ambient temperature for 5 weeks. The solid form was assessed again by XRPD. The arrows in Table 18 indicate if the form changed during storage.

[3] = Vapor diffusion into solution experiments; conditions: solvent Cis-Decahydronaphthalene, anti-solvent vapor MethylCyclohexane, room temperature, two weeks; dry
Description: For the vapor diffusion into solution experiments, saturated solutions of brigatinib were exposed to anti-solvent vapors at room temperature for two weeks. An aliquot of saturated solution was transferred to a vial which was left open and placed in a closed container with anti solvent (see Table 20). After two weeks, the samples were evaluated for solid formation. Where solids were present, the liquids were separated from the solids, which were then dried at full vacuum. In the cases where no precipitation was observed, the solvents were placed overnight at 5° C. to promote precipitation. If no solids were present, the liquids were evaporated at 200 mbar for 75 hours, or, if still no solids were present, the liquids were further evaporated at 10 mbar for a maximum of 10 days. All obtained solids were analyzed dry by XRPD and digital imaging.

[4] = Quantitative solubility testing, set of 24 solvents (HPLC); conditions: for solubility at 24 h: 20 °C
Description: Quantitative solubility testing was performed on brigatinib starting material, employing a set of 24 solvents (DMSO, heptane and water were performed in triplicate). In a vial, about 40 mg of starting material, 400 μL of solvent and a stir bar were added. After stirring for 24 h at 20° C. […], the liquid was retrieved, filtered, and analyzed for API content by HPLC.

[5] = Thermocycling experiments; conditions: thermocycling 5-40° C., 8 cycles
Description: A total of 33 slurries and 1 solution (chloroform) of starting material in solvents were prepared at room temperature. The mixtures were placed in a Crystal16™ to undergo the following temperature profile:
1. Heating at a rate of 5° C./h until reaching 40° C., with stirring (500 rpm)
2. Cooling at a rate of 5° C./h until 5° C., with stirring (200 rpm)
3. Aging for 30 min at 5° C.
After completion of the cycling program, the solids were separated from the mother liquids by centrifugation, dried under 200 mbar for 48 hours (2-ethoxyethanol for 283 hours) and analyzed by XRPD and digital imaging. For the applied crystallization conditions and corresponding obtained solid forms, see Table 24. Solid form (or mixture) following the arrow (→) was obtained upon remeasurement by XRPD after storage of the measuring plates at ambient conditions for 5 weeks.

[6] = Freeze-drying feasibility study; conditions: organic solvent or mixture, thermodynamic from solid, data obtained from freeze drying experiment
Description: Freeze-drying. Six freeze-drying experiments were performed with samples of Form A as described in Table 10. Samples 1, 2, and 4 remained mostly crystalline, but samples 3 and 5 were amorphous and contained about 15-16% residual solvent. Sample 6 was amorphous and contained about 7% residual solvent. Forms E and F were produced using this method. However, due to the variable form and solvation, freeze-drying was not further employed to obtain amorphous brigatinib.

What does the source list for `COc1cc(N2CCC(N3CCN(C)CC3)CC2)ccc1Nc1ncc(Cl)c(Nc2ccccc2P(C)(C)=O)n1` [Brigatinib]?
Form dry (XRPD) [1]: A + E; Form (XRPD) ([2]; solvent 1,4-Dioxane, anti-solvent Water, S:AS 1:4, no precipitation): A + H; Form (XRPD) ([2]; solvent Chloroform, anti-solvent tert-Butyl methyl ether, S:AS 1:4, precipitation, wet): A + G; Form (XRPD) ([2]; solvent Ethanol, anti-solvent Water, S:AS 1:4, no precipitation): A + H; Form (XRPD) [3]: Am; solubility at 24 h ([4]; 1,2-dichloroethane, organic solvent or mixture, thermodynamic from solid, 1,2-Dichloroethane): 38.3 mg/mL (≈ 65600 µM); solubility at 24 h ([4]; 1,2-dimethoxyethane, organic solvent or mixture, thermodynamic from solid, 1,2-Dimethoxyethane): 1.13 mg/mL (≈ 1930 µM); solubility at 24 h ([4]; 1,4-dioxane, organic solvent or mixture, thermodynamic from solid, 1,4-Dioxane): 4.01 mg/mL (≈ 6870 µM); solubility at 24 h ([4]; 1-butanol, organic solvent or mixture, thermodynamic from solid): 17.7 mg/mL (≈ 30400 µM); solubility at 24 h ([4]; 2-butanone, organic solvent or mixture, thermodynamic from solid): 1.11 mg/mL (≈ 1900 µM); solubility ([4]; Dimethyl Sulfoxide, 20° C., 24 h, triplicate): 3.02 mg/mL and 3.05 mg/mL; solubility ([4]; Ethyl Formate, 20° C., 24 h): 0.99 mg/mL (≈ 1690 µM); solubility at 24 h ([4]; N,N-dimethylacetamide, organic solvent or mixture, thermodynamic from solid): 0.47 mg/mL (≈ 805 µM); solubility at 24 h ([4]; acetone, organic solvent or mixture, thermodynamic from solid): 0.69 mg/mL (≈ 1180 µM); solubility at 24 h ([4]; acetonitrile, organic solvent or mixture, thermodynamic from solid): 0.36 mg/mL (≈ 616 µM); solubility at 24 h ([4]; butyl acetate, organic solvent or mixture, thermodynamic from solid): 0.32 mg/mL (≈ 548 µM); solubility at 24 h ([4]; chloroform, organic solvent or mixture, thermodynamic from solid, sample dissolved, no solids harvested): > 182 mg/mL; solubility at 24 h ([4]; cyclohexane, organic solvent or mixture, thermodynamic from solid, UR = under range): < 0.01 mg/mL; solubility at 24 h ([4]; dichloromethane, organic solvent or mixture, thermodynamic from solid, sample dissolved, no solids harvested): > 197 mg/mL; solubility at 24 h ([4]; dimethyl sulfoxide, organic solvent or mixture, thermodynamic from solid, triplicate): 2.95 mg/mL (≈ 5050 µM); solubility at 24 h ([4]; ethanol, organic solvent or mixture, thermodynamic from solid): 6.71 mg/mL (≈ 11500 µM); solubility at 24 h ([4]; ethyl acetate, organic solvent or mixture, thermodynamic from solid): 0.42 mg/mL (≈ 719 µM); solubility at 24 h ([4]; isopropanol, organic solvent or mixture, thermodynamic from solid): 1.55 mg/mL (≈ 2650 µM); solubility at 24 h ([4]; isopropyl acetate, organic solvent or mixture, thermodynamic from solid, UR = under range): < 0.01 mg/mL; solubility at 24 h ([4]; methanol, organic solvent or mixture, thermodynamic from solid): 35.3 mg/mL (≈ 60500 µM); solubility at 24 h ([4]; n-heptane, organic solvent or mixture, thermodynamic from solid, triplicate, UR = under range): < 0.01 mg/mL; solubility at 24 h ([4]; nitromethane, organic solvent or mixture, thermodynamic from solid): 0.41 mg/mL (≈ 702 µM); solubility at 24 h ([4]; p-xylene, organic solvent or mixture, thermodynamic from solid): 0.35 mg/mL (≈ 599 µM); Residual solids after solubility testing, form by XRPD ([4]; set of 24 solvents, 20° C., 24 h): Form A; solubility at 24 h ([4]; tetrahydrofuran, organic solvent or mixture, thermodynamic from solid, UR = under range): < 0.01 mg/mL; solubility at 24 h ([4]; water, thermodynamic from solid, triplicate): 0.09 mg/mL (≈ 154 µM); Form mother liquid (XRPD) ([5]; Chloroform): A + G; Form mother liquid (XRPD) ([5]; n-Heptane): A + L; solubility ([6]; 2,2,2-trifluoroethanol/water (80:20)): > 159 mg/mL; solubility ([6]; 2,2,2-trifluoroethanol/water (90:10)): > 172 mg/mL; solubility ([6]; 2,2,2-trifluoroethanol): > 224 mg/mL
